Laboratory results published in PubChem BioAssay (NCI).
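Interpolation was linear, between the two tested concentrations surrounding the appropriate level; five concentrations were tested over 48 hours in 96-well plates. TGI marks complete inhibition of growth.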

Key:
Experiment in all cases: growth of human tumour cells (NCI), 48 h
SF-268 CNS = system: SF-268 CNS
HT29 colon = system: HT29 colon
ACHN renal = system: ACHN renal
HCC-2998 colon = system: HCC-2998 colon
HOP-92 NSCLC = system: HOP-92 NSCLC
BT-549 breast = system: BT-549 breast
NCI-H23 lung = system: NCI-H23 lung
OVCAR-4 ovarian = system: OVCAR-4 ovarian
OVCAR-5 ovarian = system: OVCAR-5 ovarian
IGROV1 ovarian = system: IGROV1 ovarian
CCRF-CEM leukemia = system: CCRF-CEM leukemia
M14 melanoma = system: M14 melanoma
MDA-N = system: MDA-N
SK-MEL-2 melanoma = system: SK-MEL-2 melanoma
HOP-62 NSCLC = system: HOP-62 NSCLC
SN12C renal = system: SN12C renal
NCI-H226 lung = system: NCI-H226 lung
MDA-MB-231 breast = system: MDA-MB-231 breast
SW-620 colon = system: SW-620 colon
UACC-257 melanoma = system: UACC-257 melanoma
PC-3 prostate = system: PC-3 prostate
T-47D breast = system: T-47D breast
OVCAR-3 ovarian = system: OVCAR-3 ovarian
SNB-19 CNS = system: SNB-19 CNS
HCT-116 colon = system: HCT-116 colon
UACC-62 melanoma = system: UACC-62 melanoma
DU-145 prostate = system: DU-145 prostate
NCI-H460 lung = system: NCI-H460 lung
COLO 205 colon = system: COLO 205 colon
MOLT-4 leukemia = system: MOLT-4 leukemia
KM12 colon = system: KM12 colon
A549 NSCLC = system: A549 NSCLC
HCT-15 colon = system: HCT-15 colon
LOX IMVI melanoma = system: LOX IMVI melanoma
SK-MEL-28 melanoma = system: SK-MEL-28 melanoma
NCI/ADR-RES ovarian = system: NCI/ADR-RES ovarian
HL-60(TB) leukemia = system: HL-60(TB) leukemia
SR leukemia = system: SR leukemia
786-0 renal = system: 786-0 renal
SF-539 CNS = system: SF-539 CNS
SK-OV-3 ovarian = system: SK-OV-3 ovarian
OVCAR-8 ovarian = system: OVCAR-8 ovarian
RPMI-8226 leukemia = system: RPMI-8226 leukemia
SNB-75 CNS = system: SNB-75 CNS
CAKI-1 renal = system: CAKI-1 renal
U251 CNS = system: U251 CNS
A498 renal = system: A498 renal
SK-MEL-5 melanoma = system: SK-MEL-5 melanoma
K-562 leukemia = system: K-562 leukemia
RXF 393 renal = system: RXF 393 renal
HS 578T breast = system: HS 578T breast
MDA-MB-435 = system: MDA-MB-435
MALME-3M melanoma = system: MALME-3M melanoma
MCF7 breast = system: MCF7 breast
SF-295 CNS = system: SF-295 CNS
NCI-H522 lung = system: NCI-H522 lung
TK-10 renal = system: TK-10 renal
EKVX NSCLC = system: EKVX NSCLC
UO-31 renal = system: UO-31 renal

COc1ccc2oc(=N)c(C(N)=O)cc2c1
TGI (SF-268 CNS): > 100 µM | TGI (HT29 colon): > 100 µM | TGI (ACHN renal): > 100 µM | TGI (HCC-2998 colon): > 100 µM | TGI (HOP-92 NSCLC): > 100 µM | TGI (BT-549 breast): > 100 µM | TGI (NCI-H23 lung): > 100 µM | TGI (OVCAR-4 ovarian): > 100 µM | TGI (OVCAR-5 ovarian): > 100 µM | TGI (IGROV1 ovarian): > 100 µM | TGI (CCRF-CEM leukemia): > 100 µM | TGI (M14 melanoma): > 100 µM | TGI (MDA-N): > 100 µM | TGI (SK-MEL-2 melanoma): 63 µM | TGI (HOP-62 NSCLC): > 100 µM | TGI (SN12C renal): > 100 µM | TGI (NCI-H226 lung): > 100 µM | TGI (MDA-MB-231 breast): > 100 µM | TGI (SW-620 colon): > 100 µM | TGI (UACC-257 melanoma): > 100 µM | TGI (PC-3 prostate): > 100 µM | TGI (T-47D breast): > 100 µM | TGI (OVCAR-3 ovarian): > 100 µM | TGI (SNB-19 CNS): > 100 µM | TGI (HCT-116 colon): > 100 µM | TGI (UACC-62 melanoma): > 100 µM | TGI (DU-145 prostate): > 100 µM | TGI (NCI-H460 lung): > 100 µM | TGI (COLO 205 colon): > 100 µM | TGI (MOLT-4 leukemia): > 100 µM | TGI (KM12 colon): > 100 µM | TGI (A549 NSCLC): > 100 µM | TGI (HCT-15 colon): > 100 µM | TGI (LOX IMVI melanoma): > 100 µM | TGI (SK-MEL-28 melanoma): > 100 µM | TGI (NCI/ADR-RES ovarian): > 100 µM | TGI (HL-60(TB) leukemia): > 100 µM | TGI (SR leukemia): > 100 µM | TGI (786-0 renal): > 100 µM | TGI (SF-539 CNS): > 100 µM | TGI (SK-OV-3 ovarian): > 100 µM | TGI (OVCAR-8 ovarian): > 100 µM | TGI (RPMI-8226 leukemia): > 100 µM | TGI (SNB-75 CNS): > 100 µM | TGI (CAKI-1 renal): > 100 µM | TGI (U251 CNS): > 100 µM | TGI (A498 renal): > 100 µM | TGI (SK-MEL-5 melanoma): > 100 µM | TGI (K-562 leukemia): > 100 µM | TGI (RXF 393 renal): > 100 µM | TGI (HS 578T breast): 61.7 µM | TGI (MDA-MB-435): > 100 µM

Brc1ccc(-c2[nH]c3ccccc3c2N=Nc2ccccc2)cc1
TGI (SF-268 CNS): 36 µM | TGI (ACHN renal): 37.2 µM | TGI (HCC-2998 colon): 30.7 µM | TGI (HOP-92 NSCLC): 36.2 µM | TGI (BT-549 breast): 41.5 µM | TGI (MALME-3M melanoma): 36.1 µM | TGI (NCI-H23 lung): 34.1 µM | TGI (OVCAR-4 ovarian): 30.4 µM | TGI (OVCAR-5 ovarian): 33.5 µM | TGI (IGROV1 ovarian): 26.2 µM | TGI (M14 melanoma): 33.5 µM | TGI (MDA-N): 30.5 µM | TGI (SK-MEL-2 melanoma): 36.7 µM | TGI (HOP-62 NSCLC): 34.7 µM | TGI (SN12C renal): 31.6 µM | TGI (MDA-MB-231 breast): 35.8 µM | TGI (SW-620 colon): 35.3 µM | TGI (UACC-257 melanoma): 35.1 µM | TGI (PC-3 prostate): 32.6 µM | TGI (T-47D breast): 32.5 µM | TGI (MCF7 breast): 31.7 µM | TGI (OVCAR-3 ovarian): 26.8 µM | TGI (SNB-19 CNS): 38.1 µM | TGI (HCT-116 colon): 34.8 µM | TGI (UACC-62 melanoma): 36.7 µM | TGI (SF-295 CNS): 33.3 µM | TGI (DU-145 prostate): 32.2 µM | TGI (NCI-H460 lung): 31.8 µM | TGI (COLO 205 colon): 28.5 µM | TGI (MOLT-4 leukemia): 38.6 µM | TGI (KM12 colon): 36.1 µM | TGI (A549 NSCLC): 30.5 µM | TGI (HCT-15 colon): 30 µM | TGI (NCI-H522 lung): 34.6 µM | TGI (LOX IMVI melanoma): 65.2 µM | TGI (SK-MEL-28 melanoma): 37.8 µM | TGI (TK-10 renal): 37.8 µM | TGI (HL-60(TB) leukemia): 63.4 µM | TGI (SR leukemia): 51.8 µM | TGI (786-0 renal): 32.9 µM | TGI (SF-539 CNS): 32 µM | TGI (SK-OV-3 ovarian): 33 µM | TGI (RPMI-8226 leukemia): 58 µM | TGI (SNB-75 CNS): 33.9 µM | TGI (CAKI-1 renal): 27.8 µM | TGI (U251 CNS): 33.9 µM | TGI (A498 renal): 44.1 µM | TGI (SK-MEL-5 melanoma): 32.7 µM | TGI (K-562 leukemia): > 100 µM | TGI (EKVX NSCLC): 32.9 µM | TGI (RXF 393 renal): 30.8 µM | TGI (UO-31 renal): 29.9 µM | TGI (HS 578T breast): 44.1 µM | TGI (MDA-MB-435): 34.5 µM

Cc1ccc(NC(=O)/C=C/c2ccccc2)c(C)c1
TGI (SF-268 CNS): > 100 µM | TGI (HT29 colon): > 100 µM | TGI (ACHN renal): > 100 µM | TGI (HCC-2998 colon): > 100 µM | TGI (BT-549 breast): > 100 µM | TGI (MALME-3M melanoma): > 100 µM | TGI (NCI-H23 lung): > 100 µM | TGI (OVCAR-4 ovarian): > 100 µM | TGI (OVCAR-5 ovarian): > 100 µM | TGI (CCRF-CEM leukemia): > 100 µM | TGI (M14 melanoma): > 100 µM | TGI (MDA-N): > 100 µM | TGI (SK-MEL-2 melanoma): > 100 µM | TGI (HOP-62 NSCLC): > 100 µM | TGI (SN12C renal): > 100 µM | TGI (NCI-H226 lung): 92 µM | TGI (MDA-MB-231 breast): > 100 µM | TGI (SW-620 colon): > 100 µM | TGI (UACC-257 melanoma): > 100 µM | TGI (PC-3 prostate): > 100 µM | TGI (T-47D breast): > 100 µM | TGI (MCF7 breast): > 100 µM | TGI (OVCAR-3 ovarian): > 100 µM | TGI (SNB-19 CNS): > 100 µM | TGI (HCT-116 colon): > 100 µM | TGI (UACC-62 melanoma): > 100 µM | TGI (DU-145 prostate): > 100 µM | TGI (NCI-H460 lung): > 100 µM | TGI (COLO 205 colon): > 100 µM | TGI (MOLT-4 leukemia): > 100 µM | TGI (KM12 colon): > 100 µM | TGI (A549 NSCLC): > 100 µM | TGI (HCT-15 colon): > 100 µM | TGI (NCI-H522 lung): > 100 µM | TGI (LOX IMVI melanoma): > 100 µM | TGI (SK-MEL-28 melanoma): > 100 µM | TGI (TK-10 renal): > 100 µM | TGI (HL-60(TB) leukemia): > 100 µM | TGI (SR leukemia): > 100 µM | TGI (786-0 renal): > 100 µM | TGI (SF-539 CNS): > 100 µM | TGI (SK-OV-3 ovarian): > 100 µM | TGI (OVCAR-8 ovarian): > 100 µM | TGI (RPMI-8226 leukemia): > 100 µM | TGI (SNB-75 CNS): > 100 µM | TGI (CAKI-1 renal): > 100 µM | TGI (U251 CNS): > 100 µM | TGI (A498 renal): > 100 µM | TGI (SK-MEL-5 melanoma): > 100 µM | TGI (K-562 leukemia): > 100 µM | TGI (EKVX NSCLC): > 100 µM | TGI (HS 578T breast): 74.4 µM | TGI (MDA-MB-435): > 100 µM
